{"source": "patent US20100143385A1", "about": "“METHODS FOR REDUCING PHOSPHATE ABSORPTION” (priority 2006, published 2010)", "system": "chicks fed a phytic phosphorous basal diet", "assay": "chicken model: chicks fed Pi deficient phytic phosphorous diet with added 1α-hydroxyvitamin D3", "format": "in vivo, Single Comb White Leghorn chicks", "excerpt": "Animal model: The dietary sources of inorganic phosphate (Pi) are largely mineral phosphates or phosphate from animal tissues and products (milk and eggs). These Pi sources are readily available for absorption by monogastric animals. In diseases where the uptake of phosphorous requires intervention, patients are usually required to avoid these foods and take Pi binders. While this is a useful strategy in reducing the absorption of Pi, patients taking alternative food (e.g., plant based foods) during the treatment of diseases such as end stage renal failure is exposed to another source of phosphate that may serve as a pool of Pi for absorption. Phytic phosphorous (PP) represents 70-80% of all phosphorous in plant based foods. PP is normally unavailable for absorption in monogastric animals when consumed and is excreted with the fecal waste.\nProviding 1α-hydroxyvitamin D3 to the chickens fed the Pi deficient diet raised the serum phosphate level. Therefore, this model can be used to test whether anti-phytic acid antibodies would be effective in reducing increased serum phosphate levels from a phytic origin caused by 1α-hydroxyvitamin D3.\nAnimal experiment: The model used in this study was described by Biehl and Baker, J. Nutr. 1997, 127:2054-2059 with the exception of antibodies to phytic acid. The negative control used in this study was a Pi deficient diet (Pi=inorganic phosphate which are largely mineral phosphates or phosphate from animal tissues and products such as milk and eggs), where the dietary phosphorous used was phytic phosphate. […] The positive control was the same diet as the negative control, but supplemented with 1α-hydroxyvitamin D3 (20 μg/kg diet, Sigma). […] The remaining dietary treatment was the positive control plus the antibody to phytic acid (1 g of dried egg yolk powder produced as described above). The negative and positive controls were fed 1 g/kg diet of dried yolk powder from hens injected with the adjuvant. These egg yolk powders lacked specific antibodies.\nA total of 3 treatments were used (negative control, positive control, positive control plus antibody to phytic acid). Six one-day old male Single Comb White Leghorn chicks were assigned to each of the dietary treatments. Chicks were fed the dietary treatments for 10 days, weighed, and blood sampled for determining plasma phosphorous concentration using a Roche/Hitachi analyzer (based on the reaction of phosphate with ammonium molybdate to form ammonium phosphomolybdate without reduction). Excreta (n=1) was collected under each group of 6 chicks for mineral analysis. Chicks were euthanized and the right tibiotarsus of each chick was collected, dried, ether extracted, and ashed for the determination of bone mineral content of fat free, dried bone.\nt-Test comparison were used to determine if (1) the addition of 1α-hydroxyvitamin D3 changed the endpoint relative to the negative control diet and (2) the addition of antibody to phytate to the 1α-hydroxyvitamin D3 diet (positive control) reduced the plasma phosphate level. P values are given in the results presented below.", "key": {"[1]": {"settings": "relative to Pi deficient negative control diet"}}, "data": [{"smiles": "C=C1/C(=C\\C=C2/CCC[C@]3(C)[C@@H]([C@H](C)CCCC(C)C)CC[C@@H]23)C[C@@H](O)C[C@@H]1O", "note": "[1α-hydroxyvitamin D3]", "values": [{"measurement": "Plasma Phosphate", "setting": "chicks, Pi deficient diet, 10 days, 1α-hydroxyvitamin D3 20 μg/kg diet alone, or plus antibody 1 g/kg diet dried egg yolk powder", "value": 6.70, "unit": "mg/dL"}, {"measurement": "excreta phosphorous", "setting": "excreta (n=1) collected under each group of 6 chicks", "value": 0.5, "unit": "%"}, {"measurement": "decrease of excreta phosphorous", "setting": "[1]", "value": 22, "unit": "%"}, {"measurement": "increase of bone ash", "setting": "[1]", "value": 8, "unit": "%"}, {"measurement": "increase of plasma phosphorous", "setting": "[1]", "value": 71, "unit": "%"}, {"measurement": "bone ash", "setting": "right tibiotarsus, fat free dried bone, after 10 days of diet", "value": 37.4, "unit": "%"}]}]}
